In ChEMBL document CHEMBL4382195, “Discovery of Novel Topoisomerase II Inhibitors by Medicinal Chemistry Approaches” (J Med Chem, 2018):

Experiments:
[1] = molecular target: DNA topoisomerase 2-alpha (Homo sapiens, UniProt P11388); assay: Inhibition of recombinant human topoisomerase 2alpha using supercoiled pNO1 plasmid as substrate after 30 mins by SYBR-GOLD staining based fluorimetric analysis
DNA topoisomerase 2-beta = DNA topoisomerase 2-beta (Homo sapiens, UniProt Q02880); assay: Poison activity at recombinant human topoisomerase 2beta using pBR322 plasmid as substrate after 30 mins by ethidium bromide staining based agarose gel electrophoresis
Chain of DNA topoisomerase 2-beta (Q02880 whole entry): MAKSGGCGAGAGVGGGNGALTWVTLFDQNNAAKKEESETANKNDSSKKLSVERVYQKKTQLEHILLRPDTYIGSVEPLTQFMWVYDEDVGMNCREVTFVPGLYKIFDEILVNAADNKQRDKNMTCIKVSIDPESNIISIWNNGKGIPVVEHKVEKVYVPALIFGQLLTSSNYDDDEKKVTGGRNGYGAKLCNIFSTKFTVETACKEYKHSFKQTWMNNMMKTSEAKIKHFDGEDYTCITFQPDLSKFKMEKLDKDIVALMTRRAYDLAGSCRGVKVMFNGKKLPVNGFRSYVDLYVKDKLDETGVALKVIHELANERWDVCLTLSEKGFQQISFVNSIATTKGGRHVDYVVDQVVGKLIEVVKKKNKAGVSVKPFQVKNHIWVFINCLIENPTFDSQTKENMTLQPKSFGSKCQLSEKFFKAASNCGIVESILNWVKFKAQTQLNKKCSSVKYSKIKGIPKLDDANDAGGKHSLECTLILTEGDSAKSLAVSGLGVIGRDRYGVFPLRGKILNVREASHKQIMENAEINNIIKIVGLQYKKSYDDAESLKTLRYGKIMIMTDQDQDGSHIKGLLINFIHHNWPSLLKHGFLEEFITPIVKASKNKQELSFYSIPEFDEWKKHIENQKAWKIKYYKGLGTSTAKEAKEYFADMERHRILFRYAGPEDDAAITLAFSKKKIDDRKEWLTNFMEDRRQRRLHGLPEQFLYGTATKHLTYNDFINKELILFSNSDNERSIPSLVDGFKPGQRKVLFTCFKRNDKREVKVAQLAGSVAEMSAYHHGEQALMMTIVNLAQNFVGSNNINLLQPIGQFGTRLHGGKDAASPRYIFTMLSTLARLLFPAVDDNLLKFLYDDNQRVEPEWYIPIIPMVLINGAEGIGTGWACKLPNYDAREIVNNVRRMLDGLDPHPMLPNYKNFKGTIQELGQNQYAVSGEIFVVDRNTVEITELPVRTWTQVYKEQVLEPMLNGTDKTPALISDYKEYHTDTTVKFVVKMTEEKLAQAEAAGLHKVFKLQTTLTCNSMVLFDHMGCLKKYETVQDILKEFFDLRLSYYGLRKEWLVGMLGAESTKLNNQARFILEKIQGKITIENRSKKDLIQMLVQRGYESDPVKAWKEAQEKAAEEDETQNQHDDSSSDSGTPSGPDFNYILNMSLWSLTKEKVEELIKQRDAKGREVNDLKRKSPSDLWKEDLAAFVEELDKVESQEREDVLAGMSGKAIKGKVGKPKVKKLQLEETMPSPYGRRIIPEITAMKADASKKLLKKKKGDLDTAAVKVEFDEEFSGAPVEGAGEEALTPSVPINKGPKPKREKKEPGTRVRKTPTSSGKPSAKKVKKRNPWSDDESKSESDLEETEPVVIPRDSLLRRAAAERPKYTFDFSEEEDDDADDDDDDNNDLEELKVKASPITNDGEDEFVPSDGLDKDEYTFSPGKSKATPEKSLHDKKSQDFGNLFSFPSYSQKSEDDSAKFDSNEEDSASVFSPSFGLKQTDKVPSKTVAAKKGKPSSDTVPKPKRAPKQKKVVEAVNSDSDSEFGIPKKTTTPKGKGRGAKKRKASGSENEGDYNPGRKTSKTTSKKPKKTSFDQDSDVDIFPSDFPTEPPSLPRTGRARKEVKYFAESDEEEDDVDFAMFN

MCF7 = assay: Antiproliferative activity against human MCF7 cells after 24 hrs by MTT assay; assay type: functional, cell-based; details: MCF7, 24 h
MDA-MB-231 = assay: Antiproliferative activity against human MDA-MB-231 cells after 24 hrs by MTT assay; assay type: functional, cell-based; details: MDA-MB-231, 24 h
[2] = tested on: Panel NCI-60 (60 carcinoma cell lines); assay: Antiproliferative activity against human NCI60 cells after 48 hrs by SRB assay; assay type: functional

Chain of DNA topoisomerase 2-alpha (P11388 whole entry): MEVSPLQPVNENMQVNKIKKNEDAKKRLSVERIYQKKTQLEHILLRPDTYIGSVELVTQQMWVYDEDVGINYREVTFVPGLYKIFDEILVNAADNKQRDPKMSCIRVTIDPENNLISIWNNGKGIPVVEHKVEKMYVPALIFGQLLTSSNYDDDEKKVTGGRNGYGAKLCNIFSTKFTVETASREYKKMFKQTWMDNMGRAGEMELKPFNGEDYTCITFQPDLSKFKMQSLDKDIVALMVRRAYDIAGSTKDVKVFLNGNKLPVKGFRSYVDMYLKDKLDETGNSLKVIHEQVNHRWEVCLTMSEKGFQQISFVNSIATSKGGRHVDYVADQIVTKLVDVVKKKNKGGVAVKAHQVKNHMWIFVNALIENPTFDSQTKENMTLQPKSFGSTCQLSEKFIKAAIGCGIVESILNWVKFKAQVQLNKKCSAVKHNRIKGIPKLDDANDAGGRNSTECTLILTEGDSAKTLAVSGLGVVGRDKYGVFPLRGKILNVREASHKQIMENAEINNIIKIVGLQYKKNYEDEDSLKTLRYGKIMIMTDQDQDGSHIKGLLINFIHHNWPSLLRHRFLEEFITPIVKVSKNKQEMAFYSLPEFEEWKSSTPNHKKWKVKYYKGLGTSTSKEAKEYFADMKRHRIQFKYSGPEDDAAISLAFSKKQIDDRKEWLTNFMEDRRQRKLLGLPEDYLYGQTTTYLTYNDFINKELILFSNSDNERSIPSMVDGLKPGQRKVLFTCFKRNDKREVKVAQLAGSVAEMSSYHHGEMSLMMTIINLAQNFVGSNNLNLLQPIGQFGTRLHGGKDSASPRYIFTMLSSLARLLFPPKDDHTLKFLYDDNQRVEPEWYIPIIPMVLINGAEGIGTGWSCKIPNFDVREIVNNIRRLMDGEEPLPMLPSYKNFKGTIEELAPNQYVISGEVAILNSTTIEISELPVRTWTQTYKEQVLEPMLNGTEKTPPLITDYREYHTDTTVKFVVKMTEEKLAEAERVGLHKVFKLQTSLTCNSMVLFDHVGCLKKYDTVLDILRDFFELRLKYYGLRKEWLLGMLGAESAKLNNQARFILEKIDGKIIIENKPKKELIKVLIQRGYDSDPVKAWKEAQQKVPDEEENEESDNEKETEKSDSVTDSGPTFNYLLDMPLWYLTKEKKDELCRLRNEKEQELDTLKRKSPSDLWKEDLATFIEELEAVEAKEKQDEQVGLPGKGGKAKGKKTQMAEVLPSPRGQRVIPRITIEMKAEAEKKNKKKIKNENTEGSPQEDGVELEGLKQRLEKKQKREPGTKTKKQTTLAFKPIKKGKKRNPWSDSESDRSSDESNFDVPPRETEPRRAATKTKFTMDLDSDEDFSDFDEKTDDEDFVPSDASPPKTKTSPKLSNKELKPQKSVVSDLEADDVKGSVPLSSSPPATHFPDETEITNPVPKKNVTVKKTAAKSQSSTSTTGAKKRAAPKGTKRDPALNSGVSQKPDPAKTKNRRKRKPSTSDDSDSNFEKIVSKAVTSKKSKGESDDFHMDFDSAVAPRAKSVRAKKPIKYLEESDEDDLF

Row | SMILES | IC50 (MCF7) | IC50 (MDA-MB-231) | other results
1 | O=C(O)c1ccc(Nc2ncnc3nc[nH]c23)cc1 | – | – | IC50 [1]: 44 µM
2 | O=C(O)c1cccc(Nc2ncnc3[nH]cnc23)c1 | – | – | IC50 [1]: 65 µM
3 | CN(C)CCCNc1ccc(NCCCN(C)C)c2c1C(=O)c1ccc(C(=O)Nc3ccc(S(C)(=O)=O)cc3)cc1C2=O | – | – | IC50 (DNA topoisomerase 2-beta): 4.34 to 6.71 µM
4 | Oc1cccc(-c2nnc(Nc3cccc(F)c3)s2)c1 | 140 µM | 170 µM | –
5 | CN(C)CCNc1ccc(NCCN(C)C)c2c1C(=O)c1ccc(C(=O)Nc3ccc(S(C)(=O)=O)cc3)cc1C2=O | – | – | IC50 (DNA topoisomerase 2-beta): 5.25 to 9.31 µM
6 | Fc1ccc(Nc2nnc(-c3ccc(Cl)cc3Cl)s2)cc1 | 160 µM | 130 µM | –
7 | Clc1ccc(OCc2nnc(Nc3ccc(Br)cc3)s2)c(Cl)c1 | > 200 µM | > 200 µM | –
8 | Fc1cccc(Nc2nnc(-c3cccc(Cl)c3)s2)c1 | > 200 µM | > 200 µM | –
9 | Clc1ccc(-c2nnc(Nc3ccc(Br)cc3)s2)c(Cl)c1 | 120 µM | 70 µM | –
10 | COc1cc(S(C)(=O)=O)ccc1NC(=O)c1ccc2c(c1)C(=O)c1c(NCCCN(C)C)ccc(NCCCN(C)C)c1C2=O | – | – | IC50 (DNA topoisomerase 2-beta): 1.06 to 3.33 µM
11 | Fc1ccc(Nc2nnc(COc3ccc(Cl)cc3Cl)s2)cc1 | > 200 µM | > 200 µM | –
12 | N[C@@H](Cc1ccc(N(CCCl)CCCl)cc1)C(=O)O | – | – | GI50 [2]: 29 µM
13 | O=C1c2ccccc2C(=O)c2c(NCCNCCO)ccc(NCCNCCO)c21 [AMETANTRONE] | – | – | IC50 (DNA topoisomerase 2-beta): 0.03 to 0.99 µM
14 | Cn1c(CCCC(=O)O)nc2cc(N(CCCl)CCCl)ccc21 [BENDAMUSTINE] | – | – | GI50 [2]: 70 µM
15 | O=C(O)CCCc1ccc(N(CCCl)CCCl)cc1 [CHLORAMBUCIL] | – | – | GI50 [2]: 60 µM
16 | COc1cc([C@@H]2c3cc4c(cc3[C@@H](O[C@@H]3O[C@@H]5CO[C@@H](C)O[C@H]5[C@H](O)[C@H]3O)[C@H]3COC(=O)[C@H]23)OCO4)cc(OC)c1O [ETOPOSIDE] | – | – | GI50 [2]: 12 µM
